This note sets out measurements from ChEMBL document CHEMBL1201862, “PubChem BioAssay data set” (2004).

For orientation: GI50 means the concentration that inhibits growth by half.

Some test systems named below: HCC 2998; HCT-15; UACC-257; SF-539; KM12; EKVX; A549; SK-MEL-2; ACHN; SNB-19; RPMI-8226; COLO 205; SF-268; SK-MEL-5; Hs-578T; MCF7; NCI-H522; MDA-N; HOP-92.
Holding throughout (assay): DTP human tumour cell line panel, 48 h

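48-hour exposure; five concentrations; linearly interpolated endpoints. The concentration for 50% growth inhibition is given as GI50.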 Calls of active or inactive are those of the source. Cut-off read from the data, not from the text of the source: active = GI50 up to about 1.1 µM and inactive = higher.

As to `COc1ccc2c3c([nH]c2c1[N+](=O)[O-])C(C)N(Cc1ccccc1)CC3` (stereo not given), the GI50 is 11.5 µM (inactive) with HCC 2998; 3.61 µM in the experiment with HCT-15; 2.39 µM (inactive) in the experiment on UACC-257; 1.79 µM (inactive) in the experiment on SF-539; 3.59 µM (inactive) in the experiment on KM12; 40.3 µM (inactive) in the experiment with EKVX. The GI50 was 5.05 µM (inactive) in the experiment on A549; 3.52 µM (inactive) in the experiment with SK-MEL-2; 6.31 µM (inactive) in the experiment with ACHN; 9.1 µM (inactive) in the experiment with SNB-19; 2.43 µM (inactive) in the experiment with RPMI-8226; 3.17 µM (inactive) with COLO 205. Moreover, the GI50 in the experiment with SF-268 is 2.02 µM (inactive).

`CN(Cc1cnc2nc(N)nc(N)c2n1)c1ccc(C(=O)NC23CC4CC(CC(C4)C2)C3)cc1`: the concentration for 50% growth inhibition (GI50) in the experiment with HCT-15 is 4.71 µM; with UACC-257, 10.9 µM (inactive); in the experiment with SK-MEL-5, 4.19 µM (inactive); in the experiment with KM12, 12.3 µM (inactive); in the experiment on EKVX, 13.2 µM (inactive); with Hs-578T it was 12.9 µM (inactive). Moreover, the GI50 with SK-MEL-2 was 11.5 µM (inactive); with ACHN, 3.13 µM (inactive); with SNB-19, 6.52 µM (inactive); in the experiment with RPMI-8226, 22 µM (inactive); in the experiment with COLO 205 it was 10.4 µM (inactive); in the experiment on SF-268, 5.55 µM (inactive). Moreover, in the experiment on MCF7, the GI50 was 10.9 µM (inactive).

As for `C/C(=C\CSCC(N)C(=O)O)CC/C=C(\C)CNc1ccccc1` (stereo not given), the GI50 in the experiment with HCC 2998 was > 100 µM (inactive); in the experiment on NCI-H522 it was 49 µM (inactive); in the experiment on HCT-15 it was more than 100 µM; in the experiment with UACC-257, > 100 µM (inactive); in the experiment with SF-539, > 100 µM (inactive); with SK-MEL-5, 75.2 µM (inactive). Further, the GI50 in the experiment with KM12, with EKVX, with A549, in the experiment on Hs-578T, with SK-MEL-2 and in the experiment with ACHN was > 100 µM (inactive) each time. The GI50 in the experiment on SNB-19 is > 100 µM (inactive); in the experiment with RPMI-8226, 0.421 µM (active); with COLO 205, > 100 µM (inactive); in the experiment on SF-268 it was > 100 µM (inactive); with MCF7, > 100 µM (inactive).

`CN(C)/N=C1/CCC(C(F)(F)F)(C(F)(F)F)O1`: the GI50 with MDA-N was 48.3 µM (inactive); in the experiment with HCC 2998, 30.6 µM (inactive); in the experiment on NCI-H522 it was 35.2 µM (inactive); in the experiment on HCT-15, 41.4 µM; with SF-539, 45.4 µM (inactive); in the experiment on SK-MEL-5, 21.9 µM (inactive). The GI50 with KM12 is 20.7 µM (inactive); in the experiment with EKVX, 36.9 µM (inactive); in the experiment with A549, 37.5 µM (inactive); with Hs-578T it was 39.2 µM (inactive); in the experiment with SK-MEL-2, 20.7 µM (inactive); in the experiment on ACHN, 35.6 µM (inactive). The GI50 in the experiment with SNB-19 was 41.8 µM (inactive); with RPMI-8226, 31.5 µM (inactive); in the experiment on COLO 205 it was 16.7 µM (inactive); in the experiment on HOP-92 it was 32.7 µM (inactive); in the experiment on SF-268, 43.5 µM (inactive).

As to `Cc1ccc(NC2=CC(=O)C(NO)c3ccccc32)cc1` (stereo not given), the GI50 in the experiment with MDA-N is 2.61 µM (inactive); with HCC 2998, 7.26 µM (inactive); in the experiment on HCT-15 it was 2.79 µM; with UACC-257, 1.73 µM (inactive); with SF-539 it was 3.01 µM (inactive); in the experiment with SK-MEL-5, 1.49 µM (inactive). For the same compound, the GI50 with KM12 was 3.32 µM (inactive); in the experiment on EKVX, 2.15 µM (inactive); with A549, 3.09 µM (inactive); in the experiment on SK-MEL-2 it was 2.23 µM (inactive); with ACHN, 2.84 µM (inactive); in the experiment on SNB-19 it was 3.18 µM (inactive). In addition, the GI50 in the experiment on COLO 205 is 2.81 µM (inactive); with HOP-92 it was 2.7 µM (inactive); with SF-268, 3.32 µM (inactive); with MCF7, 2.66 µM (inactive).

As for `COc1ccc(/C=C/[N+](=O)[O-])cc1`, the GI50 in the experiment with HCC 2998 was < 0.01 µM (active); with NCI-H522, 20.4 µM (inactive); in the experiment with HCT-15, 3.7 µM; in the experiment on UACC-257, 2.94 µM (inactive); in the experiment on SF-539, 1.66 µM (inactive); in the experiment with SK-MEL-5, 11.6 µM (inactive). Further, the GI50 with KM12 is 3.18 µM (inactive); with EKVX, 13.2 µM (inactive); in the experiment with A549 it was 2.51 µM (inactive); with Hs-578T, 3.05 µM (inactive); in the experiment with SK-MEL-2, 20 µM (inactive); with ACHN it was 7.48 µM (inactive). Besides, the GI50 in the experiment with SNB-19 is 3.52 µM (inactive); in the experiment on COLO 205, 4.04 µM (inactive); in the experiment with SF-268 it was 2.92 µM (inactive); in the experiment with MCF7, 2.02 µM (inactive).

In the case of `COc1ccc(-n2nnnc2C2(Nc3ccccc3)CCN(Cc3ccccc3)CC2)cc1`, the GI50 was 3.93 µM (inactive) with HCC 2998; 7.21 µM in the experiment with HCT-15; 13.8 µM (inactive) in the experiment with UACC-257; 16.4 µM (inactive) in the experiment with SF-539; 10.2 µM (inactive) in the experiment on SK-MEL-5; 3.77 µM (inactive) in the experiment with KM12. Besides, the GI50 with EKVX is 21.6 µM (inactive); with A549 it was 14.2 µM (inactive); in the experiment with Hs-578T, 4.51 µM (inactive); with ACHN, 31.8 µM (inactive); in the experiment on SNB-19, 12.3 µM (inactive); in the experiment with RPMI-8226 it was 9.77 µM (inactive). Further, the GI50 is 6.82 µM (inactive) in the experiment with COLO 205, 3.45 µM (inactive) in the experiment with HOP-92, > 10 µM (inactive) with SF-268 and 7.73 µM (inactive) in the experiment with MCF7.

Consider `CC(NC1=NCCO1)c1cccs1` (stereo not given), for which the GI50 in the experiment on HCC 2998 was 17.7 µM (inactive); in the experiment on HCT-15, 33.7 µM; with UACC-257 it was 18.1 µM (inactive); in the experiment on SK-MEL-5, 31.8 µM (inactive); with KM12 it was 15.7 µM (inactive); in the experiment with EKVX it was 88.1 µM (inactive). Further, the GI50 in the experiment on A549 is 52.8 µM (inactive); with Hs-578T, 17.8 µM (inactive); with ACHN, 74.6 µM (inactive); in the experiment with SNB-19, 20.5 µM (inactive); in the experiment on RPMI-8226, 23.7 µM (inactive); in the experiment on COLO 205 it was 19.5 µM (inactive). In addition, the GI50 in the experiment with HOP-92 was 12.6 µM (inactive); in the experiment with SF-268, 30.4 µM (inactive); with MCF7, 22.7 µM (inactive).

On to `Cc1nc2ccccc2c(=O)n1NC(=O)c1ccc(N)cc1`, for which the GI50 in the experiment on MDA-N was > 100 µM (inactive); with HCC 2998, > 100 µM (inactive); in the experiment with NCI-H522 it was > 100 µM (inactive); with UACC-257, > 100 µM (inactive); with SF-539 it was > 100 µM (inactive); in the experiment with SK-MEL-5, 17.8 µM (inactive). The GI50 in the experiment on KM12, with EKVX, in the experiment on A549, in the experiment on ACHN, with SNB-19 and in the experiment on RPMI-8226 was > 100 µM (inactive) in each case. In addition, the GI50 in the experiment on COLO 205, with HOP-92, in the experiment with SF-268 and in the experiment with MCF7 was > 100 µM (inactive) each time.

For the compound `COc1cc2ccnc(C#N)c2cc1OCc1ccccc1`, the GI50 is > 100 µM (inactive) in the experiment on HCC 2998; 50 µM (inactive) in the experiment on NCI-H522; more than 100 µM in the experiment on HCT-15; > 100 µM (inactive) with UACC-257; 49.9 µM (inactive) in the experiment with SF-539; > 100 µM (inactive) in the experiment on SK-MEL-5. The GI50 was > 100 µM (inactive) in the experiment with KM12; > 100 µM (inactive) with EKVX; > 100 µM (inactive) in the experiment on A549; 64.1 µM (inactive) in the experiment with SK-MEL-2; > 100 µM (inactive) in the experiment with ACHN; 84.1 µM (inactive) in the experiment on SNB-19. Further, the GI50 was > 100 µM (inactive) with RPMI-8226 and 39.2 µM (inactive) in the experiment with SF-268.

Turning to `COC(=O)C1=C(C)NC(C)=C(C(=O)OC)C1c1nc2sccn2c1[N+](=O)[O-]`, the GI50 with HCC 2998 is > 100 µM (inactive); with HCT-15, more than 100 µM; in the experiment on UACC-257, > 100 µM (inactive); in the experiment on SF-539, 77.3 µM (inactive); with SK-MEL-5 it was > 100 µM (inactive); with KM12, > 100 µM (inactive). Besides, the GI50 in the experiment on EKVX is 96.4 µM (inactive); with A549, > 100 µM (inactive); with Hs-578T it was > 100 µM (inactive); in the experiment on SK-MEL-2 it was > 100 µM (inactive); in the experiment with ACHN it was > 100 µM (inactive); in the experiment with SNB-19, > 100 µM (inactive). Besides, the GI50 with RPMI-8226, in the experiment with COLO 205, in the experiment with HOP-92, in the experiment with SF-268 and with MCF7 was > 100 µM (inactive) each time.

As for `N#Cc1c(N)n(-c2cccc(C(=O)O)c2)c(=O)c2cc([N+](=O)[O-])ccc12`, the GI50 in the experiment on MDA-N was > 100 µM (inactive); in the experiment with HCC 2998 it was > 100 µM (inactive); in the experiment with HCT-15, more than 100 µM; in the experiment with UACC-257 it was > 100 µM (inactive); in the experiment with SK-MEL-5 it was > 100 µM (inactive); in the experiment on KM12, > 100 µM (inactive). The GI50 is 0.505 µM (active) in the experiment with A549; > 100 µM (inactive) in the experiment on Hs-578T; > 100 µM (inactive) in the experiment on SK-MEL-2; > 100 µM (inactive) in the experiment on ACHN; > 100 µM (inactive) with SNB-19; > 100 µM (inactive) in the experiment with RPMI-8226. Also, the GI50 in the experiment on COLO 205, with HOP-92 and with SF-268 was > 100 µM (inactive) each time.

Consider `C[C@@]1(O)C2CC3CC1(c1ccccc1)CC(/C3=N/O)/C2=N\O` (stereo not given in full), for which the GI50 in the experiment on HCC 2998 was > 100 µM (inactive); in the experiment on NCI-H522, > 100 µM (inactive); in the experiment on HCT-15 it was more than 100 µM; in the experiment on UACC-257, > 100 µM (inactive); in the experiment on SF-539 it was > 100 µM (inactive); in the experiment on SK-MEL-5 it was > 100 µM (inactive). Also, the GI50 in the experiment with KM12, in the experiment with EKVX, in the experiment with A549, in the experiment on SK-MEL-2, in the experiment with ACHN and in the experiment on SNB-19 was > 100 µM (inactive) in each case. Besides, the GI50 with COLO 205, in the experiment on HOP-92 and with SF-268 was > 100 µM (inactive) in each case.
